Experimental findings from US20210038607A1, “OXADIAZOLYLTHIOPHENE DERIVATIVES USEFUL AS HISTONE DEACETYLASE INHIBITORS” (Karus Therapeutics Limited, priority 2018, published 2021) are described below.

One test deals with T1, Human HDAC8 (Homo sapiens, UniProt Q9BY41).
T1 construct: full length with C-terminal His tag, MW=42.6 kDa; His (C); host or cells: baculovirus expression system
T1 sequence (Q9BY41 1-377): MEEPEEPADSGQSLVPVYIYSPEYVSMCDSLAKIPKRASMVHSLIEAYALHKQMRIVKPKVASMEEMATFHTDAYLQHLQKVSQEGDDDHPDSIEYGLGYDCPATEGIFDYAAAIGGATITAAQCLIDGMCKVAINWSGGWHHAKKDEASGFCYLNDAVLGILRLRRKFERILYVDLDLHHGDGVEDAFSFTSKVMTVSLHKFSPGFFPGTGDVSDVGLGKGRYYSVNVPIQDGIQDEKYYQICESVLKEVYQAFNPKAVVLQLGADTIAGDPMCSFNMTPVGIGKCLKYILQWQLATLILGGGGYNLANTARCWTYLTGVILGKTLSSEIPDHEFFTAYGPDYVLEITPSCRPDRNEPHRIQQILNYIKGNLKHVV
Kind of test: HDAC8 biochemical assay, AMC-labeled peptide substrate. The settings on record: read-out: HDAC Isoform IC50 (nM) 8. In a few lines:
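Two-step fluorogenic readout: compounds and enzyme deacetylate 100 µM RHK(Ac)K(Ac)AMC for 2 h at 30° C (pH8.0 Tris buffer, BSA, 1% DMSO final), then developer releases AMC, read at 360/460 Ex/Em. Enzyme: 1 ng/ul full-length His-tagged human HDAC8 from baculovirus.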

A further test deals with T2, Human HDAC9 (Homo sapiens, UniProt Q9UKV0).
T2 construct: amino acids 604-1066 with C-terminal His tag; His (C); host or cells: baculovirus expression system
T2 sequence (Q9UKV0 604-1066 isoform Q9UKV0-5): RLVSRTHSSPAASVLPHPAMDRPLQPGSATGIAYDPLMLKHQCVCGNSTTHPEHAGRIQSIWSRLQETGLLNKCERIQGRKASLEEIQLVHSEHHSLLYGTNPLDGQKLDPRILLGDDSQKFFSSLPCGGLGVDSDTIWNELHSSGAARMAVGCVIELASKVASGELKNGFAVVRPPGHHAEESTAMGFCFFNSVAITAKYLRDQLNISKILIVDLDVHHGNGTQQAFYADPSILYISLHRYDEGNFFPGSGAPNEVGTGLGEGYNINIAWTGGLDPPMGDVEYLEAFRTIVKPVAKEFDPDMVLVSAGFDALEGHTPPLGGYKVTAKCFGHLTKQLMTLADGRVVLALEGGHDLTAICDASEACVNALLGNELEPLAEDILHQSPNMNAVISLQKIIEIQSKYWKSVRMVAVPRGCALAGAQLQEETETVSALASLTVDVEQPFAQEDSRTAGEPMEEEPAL
Kind of test: HDAC9 biochemical assay, class IIa-specific substrate. Particulars: read-out: HDAC Isoform IC50 (nM) 9. In short, it runs like this:
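HDAC9 residues 604-1066 (C-terminal His tag, baculovirus-expressed) at 0.06 ng/ul with 50 μM class IIa substrate Boc-Lys(trifluoroacetyl)-AMC in Tris-HCl pH 8.0 buffer with BSA and 1% DMSO. 30 min at room temperature, then developer added; fluorescence read at 360/460 nm Ex/Em.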

For a further test, the target named is T3, Human HDAC7 (Homo sapiens, UniProt Q8WUI4).
T3 construct: (a.a. 518-end) with N-terminal GST tag; GST (N); host or cells: baculovirus expression system
T3 sequence (Q8WUI4 518-952 limits assumed): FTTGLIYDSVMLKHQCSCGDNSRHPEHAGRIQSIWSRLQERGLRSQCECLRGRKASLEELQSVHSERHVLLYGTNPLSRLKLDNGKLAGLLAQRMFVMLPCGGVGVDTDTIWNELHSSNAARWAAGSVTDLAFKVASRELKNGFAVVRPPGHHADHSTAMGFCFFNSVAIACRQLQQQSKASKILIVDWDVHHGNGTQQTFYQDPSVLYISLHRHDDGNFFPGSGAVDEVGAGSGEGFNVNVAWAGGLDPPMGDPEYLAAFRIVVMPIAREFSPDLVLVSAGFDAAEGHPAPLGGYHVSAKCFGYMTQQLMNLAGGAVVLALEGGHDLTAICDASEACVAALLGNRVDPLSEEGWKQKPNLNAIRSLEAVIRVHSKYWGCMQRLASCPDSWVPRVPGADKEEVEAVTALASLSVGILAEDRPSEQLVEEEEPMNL
Kind of test: HDAC7 biochemical assay, class IIa-specific substrate. Particulars: read-out: HDAC Isoform IC50 (nM) 7. In short, it runs like this: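 Two-step fluorogenic readout: class IIa-selective trifluoroacetyl-lysine AMC substrate (50 μM) deacetylated by N-terminal GST-HDAC7 fragment (0.001 ng/ul), then digested by developer, Ex/Em 360/460. Reaction: 30 min, room temperature, Tris-HCl pH 8.0, NaCl/KCl/MgCl2, 1 mg/mL BSA, 1% DMSO.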

In test [1] the target is T4, Complex of human HDAC3 and human NCOR2 (Homo sapiens, UniProt O15379).
T4 construct: full length with C-terminal His tag, MW=49.7 kDa; His (C); host or cells: baculovirus expression system (co-expressed)
T4 sequence (O15379 whole entry): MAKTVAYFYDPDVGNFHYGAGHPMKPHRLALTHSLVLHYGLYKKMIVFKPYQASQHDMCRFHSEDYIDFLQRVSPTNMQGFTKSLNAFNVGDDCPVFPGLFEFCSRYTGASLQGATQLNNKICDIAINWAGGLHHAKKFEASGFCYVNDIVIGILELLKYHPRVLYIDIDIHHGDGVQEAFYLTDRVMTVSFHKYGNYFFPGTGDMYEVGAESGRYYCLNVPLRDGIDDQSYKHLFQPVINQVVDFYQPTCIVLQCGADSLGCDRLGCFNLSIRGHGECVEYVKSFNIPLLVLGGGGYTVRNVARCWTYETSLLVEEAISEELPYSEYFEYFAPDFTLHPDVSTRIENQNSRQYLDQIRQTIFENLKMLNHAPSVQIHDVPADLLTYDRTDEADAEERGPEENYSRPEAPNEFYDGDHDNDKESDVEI
T4 sequence (Q9Y618 395-489 partner limits assumed): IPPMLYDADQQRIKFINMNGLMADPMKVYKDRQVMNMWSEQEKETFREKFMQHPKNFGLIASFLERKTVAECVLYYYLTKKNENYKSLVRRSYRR
Put plainly: HDAC3 biochemical assay, AMC-labeled peptide substrate. The settings on record: read-out: HDAC Isoform IC50 (nM) 3. In a few lines:
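Two-stage fluorogenic read: compounds incubated 1 h at 30° C with 50 μM RHKK(Ac)AMC and 0.1 ng/ul HDAC3–NCOR2(395-489) complex (Tris pH8.0, NaCl, KCl, MgCl2, BSA, 1% DMSO). Developer digestion of deacetylated product gives signal at Ex 360/Em 460.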

Structures are written as SMILES.

Turning to `O=C(c1cnnc(N(Cc2ccc(-c3noc(C(F)(F)F)n3)s2)c2cnccn2)c1)N1CC(O)(C(F)(F)F)C1` [Example GD, 1-{6-[(Pyrazin-2-yl)({5-[5-(trifluoromethyl)-1,2,4-oxadiazol-3-yl]thiophen-2-yl}methyl)amino]pyridazine-4-carbonyl}-3-(trifluoromethyl)azetidin-3-ol], the half-inhibitory concentration (IC50) is at most 10000 nM at Human HDAC8, at most 10000 nM at Human HDAC9, at most 1000 nM on Human HDAC7 and at most 10000 nM in test [1].
Regarding `O=C(c1cnnc(N(Cc2ccc(-c3noc(C(F)(F)F)n3)s2)c2cnccn2)c1)N1CCC12COC2` [Example GF, 5-{6-Oxa-1-azaspiro[3.3]heptane-1-carbonyl}-N-(pyrazin-2-yl)-N-({5-[5-(trifluoromethyl)-1,2,4-oxadiazol-3-yl]thiophen-2-yl}methyl)pyridazin-3-amine], the IC50 is at most 10000 nM at Human HDAC8, at most 10000 nM at Human HDAC9, at most 10000 nM at Human HDAC7 and above 10000 nM in test [1].
For `FC(F)(F)c1nc(-c2ccc(CN(c3cnccn3)c3ccc(CN4CCOCC4)nn3)s2)no1` [Example FN, 6-[(Morpholin-4-yl)methyl]-N-(pyrazin-2-yl)-N-({5-[5-(trifluoromethyl)-1,2,4-oxadiazol-3-yl]thiophen-2-yl}methyl)pyridazin-3-amine], the IC50 at Human HDAC8 was at most 10000 nM; on Human HDAC9, at most 10000 nM; at Human HDAC7 it was at most 1000 nM; in test [1], above 10000 nM.
`COC1CN(Cc2ccnc(N(Cc3ccc(-c4noc(C(F)(F)F)n4)s3)c3cnccn3)c2)C1` [Example GH, N-{4-[(3-Methoxyazetidin-1-yl)methyl]pyridin-2-yl}-N-({5-[5-(trifluoromethyl)-1,2,4-oxadiazol-3-yl]thiophen-2-yl}methyl)pyrazin-2-amine]: the IC50 on Human HDAC8 was at most 10000 nM; on Human HDAC9, at most 10000 nM; on Human HDAC7, at most 10000 nM; in test [1] it was above 10000 nM.
For `O=C(c1nccnc1N(Cc1ccc(-c2noc(C(F)(F)F)n2)s1)c1cnccn1)N1CCC1` [Example GP, 3-(Azetidine-1-carbonyl)-N-(pyrazin-2-yl)-N-({5-[5-(trifluoromethyl)-1,2,4-oxadiazol-3-yl]thiophen-2-yl}methyl)pyrazin-2-amine], the concentration for half-maximal inhibition (IC50) on Human HDAC8 was at most 10000 nM; at Human HDAC9, at most 10000 nM; at Human HDAC7, at most 10000 nM; in test [1], above 10000 nM.
On to `O=C(c1cnnc(N(Cc2ccc(-c3noc(C(F)(F)F)n3)s2)c2cnccn2)c1)N1CCS(=O)(=O)CC1` [Example ED, 4-{6-[(Pyrazin-2-yl)({5-[5-(trifluoromethyl)-1,2,4-oxadiazol-3-yl]thiophen-2-yl}methyl)amino]pyridazine-4-carbonyl}-1λ^6-thiomorpholine-1,1-dione], for which the IC50 is at most 10000 nM on Human HDAC8, at most 10000 nM at Human HDAC9, at most 10000 nM on Human HDAC7 and above 10000 nM in test [1].
On to `C[C@H]1CCCN1C(=O)c1cnnc(N(Cc2ccc(-c3noc(C(F)(F)F)n3)s2)c2cnccn2)c1` [Example GY, 5-[(2S)-2-Methylpyrrolidine-1-carbonyl]-N-(pyrazin-2-yl)-N-({5-[5-(trifluoromethyl)-1,2,4-oxadiazol-3-yl]thiophen-2-yl}methyl)pyridazin-3-amine], for which the IC50 on Human HDAC8 is at most 10000 nM; at Human HDAC9, at most 10000 nM; on Human HDAC7, at most 10000 nM; in test [1], above 10000 nM.
Regarding `O=C(c1cnnc(N(Cc2ccc(-c3noc(C(F)(F)F)n3)s2)c2cnccn2)c1)N1C2CCC1COC2` [Example GB, 5-{3-Oxa-8-azabicyclo[3.2.1]octane-8-carbonyl}-N-(pyrazin-2-yl)-N-({5-[5-(trifluoromethyl)-1,2,4-oxadiazol-3-yl]thiophen-2-yl}methyl)pyridazin-3-amine], the IC50 is at most 10000 nM at Human HDAC8, at most 10000 nM at Human HDAC9, at most 10000 nM on Human HDAC7 and above 10000 nM in test [1].

For orientation: IC50 means the concentration needed to halve the response being measured.
